From US9340524B2, “Androgen receptor modulator and uses thereof” (Aragon Pharmaceuticals, Inc., priority 2013, dated 2016)

Key:
[1] = test system: PTEN KO model of prostate cancer; test: PTEN KO genetically engineered mouse model of prostate cancer; assay type: in vivo, mice; settings: for Efficacy: combined androgen blockade (castration + anti-androgen)
Experimental: Ptenlox/lox; PB-Cre mice (age 6-8 months) are imaged by small animal MRI imaging core prior to and at the completion of treatment. All mice are castrated. Surgical castration is performed under anesthesia with isoflurane. Mice are monitored postoperatively for recovery.
Mice are administered control vehicle or test article by oral gavage daily Monday through Friday schedule for a total of 35 days. MRI tumor volumes are reported for each mouse at time point zero (T0) at initiation of study and time point 35 days (T35) at completion of study. Changes in tumor volumes between T0 and T35 are calculated for individual mice and reported in waterfall plots. At study end, mice were euthanized by CO2 asphyxiation, and tissue was collected for histology, mRNA analysis, protein analysis and other analyses.

T877A AR mutant = biological target: T1, T877A AR mutant (Homo sapiens, UniProt P10275, T878A); settings: cited from earlier work
T1 sequence (P10275 1-920 T878A): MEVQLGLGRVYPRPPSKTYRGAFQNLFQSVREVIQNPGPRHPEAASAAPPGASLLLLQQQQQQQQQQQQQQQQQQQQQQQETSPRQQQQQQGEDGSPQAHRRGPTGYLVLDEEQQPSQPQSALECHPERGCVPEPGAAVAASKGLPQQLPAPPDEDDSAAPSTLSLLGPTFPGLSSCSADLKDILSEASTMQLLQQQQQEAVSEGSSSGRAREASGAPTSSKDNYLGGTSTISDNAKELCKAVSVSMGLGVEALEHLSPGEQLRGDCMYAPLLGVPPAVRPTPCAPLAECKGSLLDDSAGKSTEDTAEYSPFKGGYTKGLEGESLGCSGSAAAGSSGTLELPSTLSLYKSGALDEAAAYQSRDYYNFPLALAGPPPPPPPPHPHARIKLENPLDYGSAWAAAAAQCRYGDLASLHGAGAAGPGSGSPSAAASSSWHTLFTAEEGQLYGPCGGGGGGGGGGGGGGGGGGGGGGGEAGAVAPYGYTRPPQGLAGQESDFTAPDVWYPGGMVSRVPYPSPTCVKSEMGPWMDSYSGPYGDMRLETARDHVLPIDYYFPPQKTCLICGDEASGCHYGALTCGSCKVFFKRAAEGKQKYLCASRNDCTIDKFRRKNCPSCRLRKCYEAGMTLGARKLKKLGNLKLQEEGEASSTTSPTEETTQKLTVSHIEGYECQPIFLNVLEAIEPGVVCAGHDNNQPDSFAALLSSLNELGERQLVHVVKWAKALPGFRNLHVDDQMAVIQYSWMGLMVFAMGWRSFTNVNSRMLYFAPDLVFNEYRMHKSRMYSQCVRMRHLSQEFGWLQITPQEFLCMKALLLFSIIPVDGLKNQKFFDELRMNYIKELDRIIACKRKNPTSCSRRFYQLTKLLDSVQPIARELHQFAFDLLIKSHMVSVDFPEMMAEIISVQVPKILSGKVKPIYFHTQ

LNCaP/AR cells = test: LNCaP/AR model for castrate resistant prostate cancer xenograft studies; assay type: in vivo, male SCID Hairless Outbred mice; settings: for Efficacy on LNCaP/AR tumors: monotherapy at or near maximally efficacious dose
Experimental: In some embodiments, overexpression of wild type androgen receptor 3-5 fold in the LNCaP (LNCaP/AR) cell line confers a castration resistant phenotype both in vitro and in vivo.
Six to Seven week old male SCID Hairless Outbred mice (SHO, Charles Rivers Laboratories) underwent bilateral orchiectomy under isoflurane anesthesia. LNCaP/AR cells were grown in RPMI at 5% CO2, 37° C. Cells were spun down and re-suspended in 50% serum-free RPMI and 50% Matrigel at 1×10^7 cells/ml. LNCaP/AR cells were subcutaneously injected (100 μl/animal) on the right flank 3-5 days post castration. Tumor volume (length×width^2/2) was monitored weekly. When tumors reached an average volume of ˜200 mm^3 animals were randomized into treatment groups. During the treatment period tumor volume was monitored bi-weekly. At the termination of the study, tumors were collected and stored for further analyses. All compounds were administered daily by oral gavage. Statistical analyses were performed using Graphpad Prism.

metastatic CRPC = test: Phase II clinical trial, metastatic CRPC (treatment-naïve and post-abiraterone acetate cohorts); assay type: in vivo, human; settings: for Patients with 12-week PSA decline of ≧50% from baseline: preliminary
Text: (§1) The primary objective was to assess antitumor activity and PSA kinetics as defined by the Prostate Cancer Clinical Trials Working Group (PCWG2) criteria. […] The median time to PSA progression was not reached for the TN cohort during the preliminary 12-week period, and was 16 weeks in the PA cohort.

[2] = test system: non-castrate hormone-sensitive and bicalutamide-resistant human prostate cancer xenograft models; settings: in vivo; cited from earlier work
non-metastatic CRPC = test: Phase II clinical trial, non-metastatic CRPC; assay type: in vivo, human; settings: 240 mg/day
Text: as §1
The median time to PSA progression was not reached in this observed time period.

MDA MB 453 cells = test: MDA MB 453 breast cancer xenograft assay; assay type: in vivo, female SCID Hairless Outbred (SHO) mice; settings: 30 mg/kg/day, daily for 28 days
Experimental: Time release pellets (12.5 mg 5α-Dihydrotestosterone/60 days) were subcutaneously implanted into female SCID Hairless Outbred (SHO) mice. MDA MB 453 cells were grown in RPMI containing 10% FBS, 10 μg/ml insulin, 10 mM Sodium Pyruvate, 10 mM Non-Essential Amino Acids at 5% CO2, 37° C. Cells were spun down and re-suspended in 50% RPMI (serum free) and 50% Matrigel (BD, high concentration containing phenol red) at 1×10^7 cells/ml. MDA MB 453 cells were subcutaneously injected (100 μl/animal) on the right flank 2-3 days post pellet implantation. Tumor volume (length×width^2/2) was monitored bi-weekly. When tumors reached an average volume of ˜350 mm^3, animals were randomized and treatment was started. […] Tumor volume and body weight were monitored bi-weekly throughout the study. At the conclusion of the treatment period; plasma and tumor samples were taken for pharmacokinetic and pharmacodynamic analyses, respectively.

CNC(=O)c1ccc(N2C(=S)N(c3ccc(C#N)c(C(F)(F)F)c3)C(=O)C2(C)C)cc1F [MDV3100, 4-(3-(4-cyano-3-(trifluoromethyl)phenyl)-5,5-dimethyl-4-oxo-2-thioxoimidazolidin-1-yl)-2-fluoro-N-methylbenzamide]
Efficacy [1]: minimal efficacy

CC(C)(O)C(=O)Nc1ccc([N+](=O)[O-])c(C(F)(F)F)c1 [hydroxyflutamide]
Agonist activity (T877A AR mutant): act as AR agonists

Nc1cc(C(F)(F)F)c(-c2cc(N3CCOCC3)nc(N3CCOCC3)n2)cn1 [BKM120, 5-(2,6-dimorpholinopyrimidin-4-yl)-4-(trifluoromethyl)pyridin-2-amine]
Number of regressions > 50% (LNCaP/AR cells; Table 4, BKM120 20 mg/kg alone): 1/10
Number of regressions > 50% (LNCaP/AR cells; Table 4, BKM120 40 mg/kg alone): 0/9
Efficacy on LNCaP/AR tumors (LNCaP/AR cells): a range of efficacy from tumor growth inhibition to tumor stasis

COc1ccc(Cl)c(Nc2nc3ccccc3nc2NS(=O)(=O)c2cccc(NC(=O)C(C)(C)N)c2)c1 [SAR245408]
Efficacy on LNCaP/AR tumors (LNCaP/AR cells): a range of efficacy from tumor growth inhibition to tumor stasis

Cn1c(=O)n(-c2ccc(C(C)(C)C#N)cc2)c2c3cc(-c4cnc5ccccc5c4)ccc3ncc21 [BEZ-235]
Anti-tumor activity ([1]; monotherapy): minimal anti-tumor activity

CNC(=O)c1ccc(N2C(=S)N(c3cnc(C#N)c(C(F)(F)F)c3)C(=O)C23CCC3)cc1F [4-[7-(6-cyano-5-trifluoromethylpyridin-3-yl)-8-oxo-6-thioxo-5,7-diazaspiro[3.4]oct-5-yl]-2-fluoro-N-methylbenzamide]
Mean tumor response of LNCaP/AR tumors (LNCaP/AR cells; 1 mg/kg/day): tumor stasis
Tumor response of LNCaP/AR tumors (LNCaP/AR cells; 10-30 mg/kg/day): nearly full regression of all treated LNCaP/AR tumors
Number of regressions > 50% (LNCaP/AR cells; Table 4, 3 mg/kg/day alone, oral gavage daily): 2/10
Number of regressions > 50% (LNCaP/AR cells; Table 5, 3 mg/kg/day alone, oral gavage daily): 1/10
Tolerability (metastatic CRPC; 240 mg oral, continuous daily dosing, NM-CRPC, TN mCRPC and post-abiraterone mCRPC): very well tolerated
Patients with 12-week PSA decline of ≧50% from baseline (metastatic CRPC; PA cohort, 240 mg oral, continuous daily dosing): 29%
Median time to PSA progression (metastatic CRPC; PA cohort, 240 mg/day): 16 weeks
Patients with 12-week PSA decline of ≧50% from baseline (metastatic CRPC; TN cohort, 240 mg oral, continuous daily dosing): 88%
Median time to PSA progression (metastatic CRPC; TN cohort, preliminary 12-week period, 240 mg/day): not reached
Objective response rate (by RECIST) (metastatic CRPC; TN patients with measurable disease at baseline, 240 mg/day): 63%
Tumor response [2]: partial or complete tumor regression
Efficacy [1]: minimal efficacy
Patients with ≧50% decline in PSA as compared to baseline (non-metastatic CRPC; 12 weeks of treatment): 91%
Patients with ≧50% decline in PSA (non-metastatic CRPC; 24 weeks): 91%
Patients with ≧90% decline in PSA (non-metastatic CRPC; 24 weeks): 55%
Median time to PSA progression (non-metastatic CRPC; observed time period): not reached
Number of Tumor Regressions (MDA MB 453 cells; +DHT): 9/9
Number of Tumor Regressions (MDA MB 453 cells; −DHT): 5/10

CO[C@H]1C[C@@H]2CC[C@@H](C)[C@@](O)(O2)C(=O)C(=O)N2CCCC[C@H]2C(=O)O[C@H]([C@H](C)C[C@@H]2CC[C@@H](OCCO)[C@H](OC)C2)CC(=O)[C@H](C)/C=C(\C)[C@@H](O)[C@@H](OC)C(=O)[C@H](C)C[C@H](C)/C=C/C=C/C=C/1C [Everolimus]
Number of regressions > 50% (LNCaP/AR cells; Table 5, Everolimus 5 mg/kg/day alone): 0/8
Number of regressions > 50% (LNCaP/AR cells; Table 5, Everolimus 10 mg/kg/day alone): 2/10
Efficacy on LNCaP/AR tumors (LNCaP/AR cells): a range of efficacy from tumor growth inhibition to tumor stasis
